Literature values in patent publication US8618300B2, “Indolizine inhibitors of leukotriene production” (Boehringer Ingelheim International GmbH, priority 2008, dated 2013).

Experiments:
[1] = test system: human glomerulonephritis; conditions: clinical trial; cited from earlier work
[2] = test system: biomarkers for myocardial infarction risk; conditions: clinical trials; cited from earlier work
[3] = test system: apoE/LDL-R double knockout mice; conditions: oral dosing, high-fat diet from 2 months of age to 6 months; cited from earlier work
[4] = test system: ApoE^−/−×CD4 dnTβRII mice; conditions: infusion, treated for four weeks after 12 weeks plaque growth; cited from earlier work

## CC(C)(C)Sc1c(CC(C)(C)C(=O)O)n(Cc2ccc(Cl)cc2)c2ccc(OCc3ccc4ccccc4n3)cc12 [MK-591]
[1]
  effect on proteinuria: useful for reducing proteinuria

## O=C(O)[C@@H](c1ccc(OCc2ccc3ccccc3n2)cc1)C1CCCC1 [DG-031]
[2]
  effect on biomarkers for myocardial infarction risk: dose-dependent suppression of biomarkers

## CC(C)c1ccc2c(c1)c(SC(C)(C)C)c(CC(C)(C)C(=O)O)n2Cc1ccc(Cl)cc1 [MK-886]
[3]
  decrease in plaque coverage in the aorta: 56%
  decrease in plaque coverage in the aortic root: 43%
[4]
  decrease in plaque area in the aortic root: ~40%
